Results reported in patent US9603827B2, “Method for preventing and/or treating hairy wart disease” (Mitsubishi-Kagaku Foods Corporation, priority 2014, dated 2017).

How the values were obtained:
Assay type in all cases: in vivo
[1] = system: dairy cows afflicted with digital dermatitis; experiment: Effect of patch on digital dermatitis of dairy cows (Example 1); details: patch on affected area, assessed two days later
Text: 3 g of a powdered composition of allyl isothiocyanate (trade name: “Wasaouro Powder”, Mitsubishi-Kagaku Foods Corp.) were placed on a piece of absorbent cotton and pressed against the affected area of dairy cows afflicted with digital dermatitis followed by wrapping with an elastic bandage to administer the allyl isothiocyanate to the affected area in the form of a patch and assessing the effect two days later. In addition, the effect of respectively administering sodium alginate and slaked lime using the same method was also assessed two days later.

[2] = system: dairy cows afflicted with digital dermatitis; experiment: Pain at affected area by pressure gauge, with and without hoof trimming (Example 4); details: applied after hoof trimming; observed after 2, 4 and 6 days
Text: (§1) Allyl isothiocyanate (trade name: “Wasaouro Powder”, Mitsubishi-Kagaku Foods Corp.) was applied to the affected areas of dairy cows afflicted with digital dermatitis, and microbial scores and changes in pain at the lesions were observed after 2, 4 and 6 days.
(§2) Comparisons were made under the following conditions A to D in order to confirm differences in effects attributable to the presence or absence of hoof trimming.
(§3) A: Allyl isothiocyanate applied to affected area after hoof trimming
(§4) B: Allyl isothiocyanate applied to affected area without performing hoof trimming
(§5) C: Allyl isothiocyanate applied after hoof trimming and cleaning the affected area with Oxydol disinfectant
(§6) D: Affected area cleaned with Oxydol disinfectant after hoof trimming (without applying allyl isothiocyanate)
Changes in pain were evaluated based on the level of pressure at which pain was felt by tightly squeezing the affected area with a pressure gauge. Larger values indicate lower levels of pain.

Treponema [3] = experiment: Microbial score of affected area with and without hoof trimming (Example 4); details: observed after 2, 4 and 6 days
Text: as §1, §2, §3, §4, §5, §6
Microbial scores of the affected areas were obtained by scoring the number of microorganisms from a stamped specimen of the heel bulb in the manner indicated below.
3: Treponema covered the entire field of view
2: Large number of Treponema confirmed in the field of view
1: Treponema only occasionally confirmed
0: Treponema unable to be confirmed

[4] = system: dairy cows afflicted with hairy hoof wart attack; experiment: Effect of patch on hairy hoof wart attack of dairy cows (Example 2); details: assessed one week later
Text: 3 g of a powdered composition of allyl isothiocyanate (trade name: “Wasaouro Powder”, Mitsubishi-Kagaku Foods Corp.) were placed on a piece of absorbent cotton and pressed against the affected area of dairy cows (5) afflicted with hairy hoof wart attack followed by wrapping with an elastic bandage to administer the allyl isothiocyanate to the affected area in the form of a patch and assessing the effect one week later. […] Hairy hoof wart attack is a hoof and leg disease having lesions that are more serious and cover a broader area in comparison with digital dermatitis, and when considering that an effective preventive and/or treatment method has currently yet to be found, this effect of allyl isothiocyanate can be said to be groundbreaking.

Acholeplasma vituli = experiment: 16S rRNA clone analysis of digital dermatitis lesion before and after treatment; details: Table 3 cow
Text: (§7) Samples were collected from two cows afflicted with digital dermatitis. First, a digital dermatitis lesion was collected from the affected area by biopsy prior to treatment. After collecting the lesion, a powdered composition containing allyl isothiocyanate (trade name: “Wasaouro Powder”, Mitsubishi-Kagaku Foods Corp.) was applied to the affected area. After confirming improvement of clinical symptoms seven days later, a sample was again collected by biopsy. The stage of digital dermatitis at the time of sampling was assessed macroscopically. In order to investigate the predominant microbial species in the lesion before and after treatment, DNA was extracted from four specimens of digital dermatitis lesion materials of the two cows before and after treatment, low cycle number PCR (25 cycles or less) was carried out using universal primers to 16S rRNA gene, and the amplified gene fragment was cloned in an Escherichia coli vector. 192 clones were randomly harvested for each specimen to determine the base sequence of the amplified 16S rRNA gene. Among these, a homology analysis was performed by a BLAST search using clones from which data was obtained for base sequences in excess of 1450 bp, followed by determination of microbial species.

Eubacteriaceae = experiment: as above
Text: as §7

Anaerovorax odorimutans = experiment: as above; details: Table 3 cow
Text: as §7

Psychrobacter = experiment: as above; details: Table 3 cow
Text: as §7

Treponema [5] = experiment: as above
Text: as §7

Clostridiaceae = experiment: as above; details: Table 3 cow
Text: as §7

[6] = 3 g powder patch, five dairy cows
[7] = after treatment (n = 178), seven days
[8] = Table 2 cow, after treatment (n = 171), seven days
[9] = Table 2 cow, before treatment (n = 181)
[10] = Table 3 cow, after treatment (n = 178), seven days
[11] = Table 3 cow, before treatment (n = 180)

## C=CCN=C=S [Allyl isothiocyanate, allyl isothiocyanate]
[1]
  Degree of effect: Effective (number of digits): 1 digits
  Degree of effect: Ineffective (number of digits): 0 digits
  Degree of effect: Slightly effective (number of digits): 0 digits
  Degree of effect: Very effective (number of digits): 2 digits
  percentage of digits for which the degree of the effect was effective or better: 100%
[2]
  pain: decrease
Treponema [3]; administered after hoof trimming
  number of microorganisms at the lesion: decrease
Treponema [3]; applied after cleaning the affected area with Oxydol disinfectant
  number of microorganisms at the lesion: decrease further
[4]; [6]
  cows in which the affected area demonstrated improvement: one
  cows in which the affected area healed: two
  cows in which the affected area was unchanged: one
[4]; of the five dairy cows
  cows with effects categorized as improved or better: four
Acholeplasma vituli; [7]
  percentage of clones detected: Acholeplasma vituli: 0%
Acholeplasma vituli; before treatment (n = 180)
  percentage of clones detected: Acholeplasma vituli: 3.9%
Eubacteriaceae; [8]
  percentage of clones detected: Eubacteriaceae: 0.6%
Eubacteriaceae; [9]
  percentage of clones detected: Eubacteriaceae: 5.5%
Eubacteriaceae; [10]
  percentage of clones detected: Eubacteriaceae: 0.6%
Eubacteriaceae; [11]
  percentage of clones detected: Eubacteriaceae: 10.6%
Anaerovorax odorimutans; [7]
  percentage of clones detected: Anaerovorax odorimutans: 0%
Anaerovorax odorimutans; before treatment (n = 180)
  percentage of clones detected: Anaerovorax odorimutans: 10.0%
Psychrobacter; [7]
  percentage of clones detected: Psychrobacter: 0%
Psychrobacter; before treatment (n = 180)
  percentage of clones detected: Psychrobacter: 2.2%
Treponema [5]; [8]
  percentage of clones detected: Treponema: 7.0%
Treponema [5]; [9]
  percentage of clones detected: Treponema: 79.6%
Treponema [5]; [10]
  percentage of clones detected: Treponema: 0%
Treponema [5]; [11]
  percentage of clones detected: Treponema: 37.8%
Clostridiaceae; [7]
  percentage of clones detected: Clostridiaceae: 5.6%
Clostridiaceae; before treatment (n = 180)
  percentage of clones detected: Clostridiaceae: 26.7%

## [Ca+2].[OH-].[OH-] [Slaked lime, slaked lime, reference compound]
[1]
  Degree of effect: Effective (number of digits): 2 digits
  Degree of effect: Ineffective (number of digits): 0 digits
  Degree of effect: Slightly effective (number of digits): 5 digits
  Degree of effect: Very effective (number of digits): 0 digits
  percentage of digits for which the degree of the effect was effective or better: 29%
